Experimental data taken from patent US20130224296A1, “Drug Formulations Using Water Soluble Antioxidants” (Bristol-Myers Squibb Company, priority 2010, published 2013).
In brackets after ≈: the same amount, converted by molar mass.

What was measured:
[1] = Level of formaldehyde and formic acid in antioxidant containing Opadry films (GC); format: physicochemical; conditions: Opadry II white film, sealed vials 60° C. for 5 days; 0.2% w/v BHT or 2% w/v ascorbic acid or propyl gallate in suspension
Description: Five hundred μL of the coating suspension was dispensed in 5 mL scintillation vials. Open vials were kept overnight at 40° C. to form a film. The vials were rubber stoppered and sealed. The sealed vials were kept at 60° C. for 5 days and analyzed for formaldehyde and formic acid levels by a GC method. […] These concentrations are on the higher end of the recommended use concentrations for each antioxidant and were used to test their maximum efficacy.

[2] = physchem; conditions: water

Level of formaldehyde [1] | Level of formic acid [1] [ppm] | solubility [2] [µg/mL] | SMILES
Not detected | 60 | 3330 (≈ 15.7 mM) | CCCOC(=O)c1cc(O)c(O)c(O)c1 [Propyl gallate]
95 ppm | 1159 | 0.6 to 1.1 (≈ 0.00272 to 0.00499 mM) | Cc1cc(C(C)(C)C)c(O)c(C(C)(C)C)c1 [Butylated hydroxy toluene (BHT), Butylated hydroxy toluene]
Not detected | 184 |  | O=C1O[C@H]([C@@H](O)CO)C(O)=C1O [Ascorbic acid]
